SMILES strings stand for the structures. Bounds are passed on as bounds.

Take `O=C(O)c1ccccc1Sc1c(O)c2ccc(Cl)cc2[nH]c1=O`: the melting point (commonly the temperature, or range, at which the solid turns liquid) is > 300 °C.

As for `COC(=O)c1ccc(-c2nc(-c3ccc(Oc4ccccc4)cc3)no2)cc1`, the melting point was 112 to 113 °C. Turning to `COC(=O)C1CC(O)CN1C(=O)c1ccc(OC)cc1` (stereo unspecified), the melting point was 92 °C.

`CCOC(=O)c1cc(Oc2cc(Cl)c(Cl)cc2Cl)ccc1[N+](=O)[O-]` gave a melting point of 99 to 102 °C. Then `CCCCC(=N)NC(=O)N(C)c1ccc(Cl)cc1`, with 59 to 61 °C.

In turn, `CCOC(=O)c1c(C)nc(NCCCN(C)C)c2nccnc12` came in with a melting point of 55 to 57 °C. Then `CC1(C)CC(C)(C)CC(O)(C#Cc2ccccn2)C1`, with 126 to 127 °C.

The compound `CC1C(=O)N(c2ccc(S(N)(=O)=O)cc2Cl)CN1c1ccccc1` (stereo unspecified) returned a melting point of 202 °C. Compound `Cn1c2c(c(=O)n(-c3cc(C(=O)O)c(Cl)cc3F)c1=O)CCC2` returned a melting point of 270 to 273 °C. Then `Cc1cccc(NC(=O)CN2CCN(c3ccccc3)CC2)c1`, with 120 to 121 °C; and `C=Cc1cc(C)cc(C)c1CC(=O)NC1(C(=O)OC)CCN(OC)CC1`, with 142 to 144 °C; and `C#CCn1c(I)cc(C(O)CC)c(C)c1=O` (stereo unspecified), with 126 to 127 °C. In the case of `CCc1nc2c(c3c1[nH]c1ccccc13)C(=O)CC(C)(C)C2` it was 188 to 190 °C; in that of `CC(O)C#CC1CCC2C3CCC4CC(O)CCC4(C)C3CCC12C` (stereo unspecified), 169 to 171 °C; in that of `Cc1nc(C)c(Cl)c(NCc2nccc(OCCCCN3CCNCC3)c2C)n1`, 140 to 144 °C. Then `COC[C@H]1CC[C@H](c2ccc(I)cc2)CC1`, with 40.3 to 42.3 °C; and `Cc1cc(-c2ccc(C(=N)NO)o2)ccc1Br`, with 239 °C. In the case of `OC1(Cn2cncn2)C(=Cc2ccc(Cl)cc2)CCCC1C1CCCCC1` (stereo unspecified), the melting point came out at 144 °C.

Consider `COc1cc(-c2nc3cc(F)ccc3s2)ccc1OC(=O)N1CCOCC1`, for which the melting point amounted to 126 °C.

As to `CNCCCN1CCc2cc(OC)c(OC)cc2CC1=O`, the melting point lay in the range of 68 to 70 °C. In turn, `N#CC(=Cc1cc2ccccc2c2ccccc12)c1ccncc1` came in with a melting point of 206 to 208 °C.

In the case of `O=C1c2ccccc2C(=O)N1CC(=O)N(Cc1ccccc1)c1ccccc1`, the melting point was determined as 150 °C.

Compound `COCCOc1cc(Oc2ccc(C(F)(F)F)cn2)ccc1CCCOc1cc(CCC(=O)O)n(C)n1` showed a melting point of 110 °C.

As for `Cc1cc(C)c(Nc2nc(C)nc(OC3CCOC3)c2C)c(C)c1` (stereo unspecified), the melting point was in the range of 126 to 128 °C. `CN(C1=CC(=O)C(=O)c2ccccc21)C1CCCCC1` had a melting point of 168 to 170 °C. Then `CN1N=C(c2ccccc2Cl)N(C)N=C1c1ccccc1Cl`, with 148 to 149 °C; and `Cc1cc(C(=O)c2[nH]c3ccc(Cl)cc3c2CC(=O)O)no1`, with 253 to 255 °C; and `CCCn1c(=O)c([N+](=O)[O-])c2n(c1=O)CCS2`, with 189 to 191 °C. `CC1CC2C3CCC4=CC(=O)C=CC4(C)C3(F)C(O)CC2(C)C1(O)C(=O)COC(=O)c1cccnc1` (stereo unspecified) gave a melting point of 262 to 265 °C. In the case of `CCOC(=O)C(=NOCCBr)c1csc(NC=O)n1` it was 95 to 98 °C; in that of `CCCCNC(=O)CCC(=NNC(N)=S)c1ccccc1`, 64 to 68 °C. Then `Cc1cc(-c2cnc(N)c(C(=O)Nc3cccnc3)n2)ccc1F`, with 186 to 189 °C. In the case of `O=C(CC(=O)c1cccc(C(F)(F)F)c1NC(=O)CCl)Nc1nccs1` it was 192 °C; in that of `Cc1nnnn1CCCC(=O)O`, 71 to 72.5 °C. Regarding `CCCCCCCCCCCCCCCc1cc2ccc(C(=O)O)cc2[nH]1`, the melting point was in the range of 140 to 142 °C.

The compound `COc1ccc(OC(C)=O)c2ccccc12` came in with a melting point of 51 to 53 °C.

As for `O=c1c(C2=Nc3ccccc3S(=O)(=O)N2)c(O)c2ccccc2n1CCCCO`, the melting point lay within 238 to 240 °C. As for `CCCNC(=O)N1N=C(c2ccc(N)cc2)c2cc(Cl)ccc2CC1C` (stereo unspecified), the melting point is 88 to 90 °C.

As to `CC1(C)CC(OC(=O)c2ccccc2)CC(C)(C)N1OC(=NC1CCCCC1)NC1CCCCC1`, the melting point lay in the range of 50 to 57 °C. Then `Cn1ncc2[nH]c3cccc(-c4cccc(O)c4)c3c(=O)c21`, with > 300 °C; and `O=c1nc(-c2cccc(CNS(=O)(=O)c3ccccc3)n2)sc2ccccc12`, with 207 to 208 °C; and `COC(=O)NN=C1C(=O)Nc2ccc(C3=NNC(=O)SC3C)cc21` (stereo unspecified), with 201 °C. As to `Cn1cc2c(C(F)(F)F)cc(Cl)nc2n1`, the melting point was 124 °C. Then `C#CCOCCn1cnc2cnc3ccccc3c21`, with 124 to 126 °C.

Consider `C=CCOc1cc(Br)ccc1C(C)=NO`, for which the melting point was determined as 115 °C. In the case of `Cc1nc(-n2cc(OCc3ccccc3)ccc2=O)sc1C(=O)NCc1ccccc1` it was 166 to 167 °C; in that of `COc1cc(C(=O)NN2CCN(C3CCCC3)CC2)ccc1Nc1ncc2c(n1)N(C1CCCCC1)CC(F)(F)C(=O)N2C`, 98 to 99 °C. In the case of `Cc1ccc(C2Sc3ccccc3NC(=O)C2COS(C)(=O)=O)cc1` (stereo unspecified) it was 207 °C; in that of `CC1(C)OCc2cc(CCNC(=O)C(F)(F)F)ccc2O1`, 91 to 93 °C; in that of `N[C@@H](CC(=O)c1ccc2oc3ccccc3c2c1)C(=O)O`, 182 to 187 °C. Consider `O=C1Nc2ccccc2SC(c2ccccc2)=C1Cl`, for which the melting point was 239 to 241 °C. `NS(=O)(=O)c1ccccc1Cn1cncn1` yielded a melting point of 128 to 131 °C. In the case of `COC(=O)c1cc(S(=O)(=O)N=CN(C)C)ccc1Cl` it was 140 to 141 °C; in that of `CC1=CC(OC(=O)c2ccc([N+](=O)[O-])cc2)C2OC1(OCCO)CC2(C)C` (stereo unspecified), 166 to 168 °C; in that of `Oc1ccc2c(c1)OCC(c1cccc(F)c1)C2c1ccc(OCCN2CCCC2)cc1` (stereo unspecified), 146 to 150 °C. In the case of `Cc1cc(C2(c3ccc(O)cc3)c3ccccc3-c3ccccc32)cc(C)c1O` it was 90 to 105 °C; in that of `COc1ccc(C(c2ccc(OC)cc2)c2cnccc2C(=O)O)cc1`, 122 to 124 °C; in that of `CCOc1cc2ncc3c(N)nc(-c4ccc(Br)cc4)cc3c2cc1OCC`, 230 to 235 °C.

Consider `CCCC1=NN(c2ccc([N+](=O)[O-])cc2)C(=O)C1=CNc1ccccc1CC`, for which the melting point was 211 °C.

Compound `CCNC(=O)Nc1ccc(C(O)(C(F)(F)F)C(F)(F)F)cc1Br` yielded a melting point of 125 to 127 °C. In the case of `CC1=CC(=O)CC(C)(C)C1(O)/C=C/C(C)=C\C=O` (stereo unspecified) it was 111 to 113 °C. In the case of `CNC(Cc1cc(Cl)ccc1N)c1sccc1C` (stereo unspecified) it was 59 to 61 °C.

Compound `CNC(=O)Nc1ccc(C2=NN(C(=O)NC)C(C)Cc3cc4c(cc32)OCO4)cc1` (stereo unspecified) displayed a melting point of 181 to 183 °C. Regarding `Cc1cccc(NC(=O)c2ccccc2CN2C(=O)C3(COc4cc5c(cc43)CCO5)c3ccccc32)c1C` (stereo unspecified), the melting point is > 230 °C. With `O[C@@H](CNCCOc1ccc2oc(-c3noc(C(F)(F)F)n3)cc2c1)COc1ccccc1F`, the melting point was in the range of 117 to 119 °C. The compound `COc1ccc(-c2cc3ncnc(Nc4ccc5[nH]ccc5c4)c3s2)cn1` had a melting point of 243 to 249 °C. Then `CCCc1nnc2n1-c1ccccc1CS2`, with 114 °C; and `CS(=O)(=O)c1ccc(-c2nc(C(F)(F)F)nc(Cl)c2-c2ccc(S(=O)(=O)Cl)cc2)cc1`, with 207 to 210 °C; and `O=C1CC[C@]2(C[C@H]3CC[C@@H]2C3)C(=O)N1` (racemic), with 154 to 156 °C. Compound `CCOc1cc([C@@H](CCN(C=O)OC(C)=O)N2Cc3cccc(NC(=O)C(C)C)c3C2=O)ccc1OC` registered a melting point of 72 to 74 °C. Then `CC1(C)Oc2ccc(OC(F)(F)F)cc2[C@@H](NC(=O)c2ccccc2[N+](=O)[O-])[C@@H]1O`, with 189 to 190 °C; and `NN1CN=Cc2c(NC3OC(CO)C(O)C3O)ncnc21` (stereo unspecified), with 209 to 214 °C. In the case of `Cc1ccc(S(=O)(=O)C[C@H]2CN3C(=O)C[C@@H]3O2)cc1` (racemic) it was 120 to 121 °C; in that of `CC(C)(C)OC(=O)NCc1ccc(-n2c(-c3cccnc3N)nc3ccc(-c4cn[nH]c4)nc32)cc1`, 243 to 244 °C; in that of `O=C(NCc1ccccn1)Nc1cc(N2CC(Cc3ccccc3)CC2=O)ccn1` (stereo unspecified), 215 to 220 °C. Then `Cc1ccc(-c2ccccc2-c2nnnn2-c2ccc([N+](=O)[O-])cc2)cc1`, with 164 to 166 °C; and `COc1cc2ncnc(N3CCC(CN4C=CC=NS4(=O)=O)CC3)c2cc1OC`, with 173 to 174 °C; and `CCOC(=O)c1cn(-c2ccc(F)cc2F)c2c(Cl)c(F)c(F)cc2c1=O`, with 211 to 212 °C. Consider `Nc1cc(C(F)(F)F)cnc1Cl`, for which the melting point is 94 to 95 °C. The compound `CCCCCCCCCCCCCCCCCNC(=O)O[C@@H]1CCO[C@H]1CO` (relative stereo) returned a melting point of 77 to 78 °C. In the case of `Cn1cnc([N+](=O)[O-])c1Sc1nc(N)nc2c1ncn2C1C=CC(CO)C1` (stereo unspecified) it was 207 to 208 °C; in that of `CC(=O)NCc1ccc(CN2CCN(c3ncccn3)CC2)cc1`, 120 to 121 °C; in that of `N#CCC(=O)N1CC=CCC1`, 58 to 59 °C. In the case of `CCCc1ccc(C(=O)O)c(F)c1F` it was 69 °C; in that of `N#Cc1cnn2c(C(F)(F)F)cc(-c3ccc(F)cc3F)nc12`, 149 °C. Then `CNC(=O)c1cc(-c2cnn(C)c2)cc(F)c1Nc1nc(Cl)ncc1Cl`, with 220 to 221 °C; and `COC(=S)c1sc(C)c(N)c1N`, with 95 to 97 °C.

The compound `COC(=O)c1cnc(CNC(=O)c2ccccc2)c2ccccc12` yielded a melting point of 140 to 142 °C.

`Cc1ccc(NC(N)=S)c(O)c1` gave a melting point of 175 to 177 °C.

In turn, `CC(C)c1ccc2nc3ccc(C(=O)NCCc4cccnc4)cn3c(=O)c2c1` had a melting point of 283 to 292 °C. `O=c1ccn(C2OC(CO)C(O)C2Br)c(=O)[nH]1` (stereo unspecified) returned a melting point of 194 to 195 °C.

(Values after a melting point compilation (Tetko et al.; mined from patent text by program, amines drawn as free bases though some values may be those of a salt).)
